What was measured:
[1] = target: T1, Cytochrome P450 1B1 (Homo sapiens, UniProt Q16678); test: Inhibition of recombinant human CYP1B1 expressed in HEK293 cells assessed as potentiation of cisplatin-induced cytotoxicity by measuring reduction in cisplatin EC50 by MTT assay; assay type: cell-based
T1 sequence (Q16678 whole entry): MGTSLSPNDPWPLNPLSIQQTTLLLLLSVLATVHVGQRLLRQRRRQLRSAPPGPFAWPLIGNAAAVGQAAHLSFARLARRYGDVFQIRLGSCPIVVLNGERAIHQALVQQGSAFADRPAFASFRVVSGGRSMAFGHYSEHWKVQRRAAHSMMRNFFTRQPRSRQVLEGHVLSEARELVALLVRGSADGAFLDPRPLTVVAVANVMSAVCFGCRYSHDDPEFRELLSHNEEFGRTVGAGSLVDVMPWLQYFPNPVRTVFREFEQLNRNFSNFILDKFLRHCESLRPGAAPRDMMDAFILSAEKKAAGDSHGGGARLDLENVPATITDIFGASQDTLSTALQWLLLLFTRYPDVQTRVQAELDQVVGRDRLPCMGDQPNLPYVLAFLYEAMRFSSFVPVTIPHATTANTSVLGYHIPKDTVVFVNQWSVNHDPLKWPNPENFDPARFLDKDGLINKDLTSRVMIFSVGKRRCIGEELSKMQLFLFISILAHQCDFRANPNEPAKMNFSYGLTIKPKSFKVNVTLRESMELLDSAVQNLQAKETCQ

[2] = target: T2, Cytochrome P450 1A1 (Homo sapiens, UniProt P04798); test: Inhibition of recombinant human CYP1A1 expressed in HEK293 cells assessed as reduction in benzo(a)pyrene-induced toxicity by measuring increase in B[a]P EC50 at 2 times IC50 by MTT assay; assay type: cell-based
T2 sequence (P04798 whole entry): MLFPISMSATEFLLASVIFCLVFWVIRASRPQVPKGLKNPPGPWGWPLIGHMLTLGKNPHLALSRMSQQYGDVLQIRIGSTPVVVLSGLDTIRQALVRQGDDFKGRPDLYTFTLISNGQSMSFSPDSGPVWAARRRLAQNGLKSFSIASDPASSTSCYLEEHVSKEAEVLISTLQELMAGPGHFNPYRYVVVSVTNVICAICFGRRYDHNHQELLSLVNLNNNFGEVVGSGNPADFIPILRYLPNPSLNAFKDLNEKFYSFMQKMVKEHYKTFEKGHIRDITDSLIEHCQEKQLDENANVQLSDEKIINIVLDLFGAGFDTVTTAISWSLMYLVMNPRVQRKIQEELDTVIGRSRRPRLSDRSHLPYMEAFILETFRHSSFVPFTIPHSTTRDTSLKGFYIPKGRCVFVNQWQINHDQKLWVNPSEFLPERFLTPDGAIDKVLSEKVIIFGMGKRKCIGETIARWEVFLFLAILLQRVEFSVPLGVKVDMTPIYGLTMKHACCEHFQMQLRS

[3] = target: T3, Aryl hydrocarbon receptor (Homo sapiens, UniProt P35869); test: Antagonist activity at recombinant human eGFP-fused Ahr expressed in yeast cells co-expressing ARNT assessed as inhibition of benzo(a)pyrene-induced Ahr activation at 1 uM measured after 18 hrs by fluorescence assay; assay type: cell-based
T3 sequence (P35869 whole entry): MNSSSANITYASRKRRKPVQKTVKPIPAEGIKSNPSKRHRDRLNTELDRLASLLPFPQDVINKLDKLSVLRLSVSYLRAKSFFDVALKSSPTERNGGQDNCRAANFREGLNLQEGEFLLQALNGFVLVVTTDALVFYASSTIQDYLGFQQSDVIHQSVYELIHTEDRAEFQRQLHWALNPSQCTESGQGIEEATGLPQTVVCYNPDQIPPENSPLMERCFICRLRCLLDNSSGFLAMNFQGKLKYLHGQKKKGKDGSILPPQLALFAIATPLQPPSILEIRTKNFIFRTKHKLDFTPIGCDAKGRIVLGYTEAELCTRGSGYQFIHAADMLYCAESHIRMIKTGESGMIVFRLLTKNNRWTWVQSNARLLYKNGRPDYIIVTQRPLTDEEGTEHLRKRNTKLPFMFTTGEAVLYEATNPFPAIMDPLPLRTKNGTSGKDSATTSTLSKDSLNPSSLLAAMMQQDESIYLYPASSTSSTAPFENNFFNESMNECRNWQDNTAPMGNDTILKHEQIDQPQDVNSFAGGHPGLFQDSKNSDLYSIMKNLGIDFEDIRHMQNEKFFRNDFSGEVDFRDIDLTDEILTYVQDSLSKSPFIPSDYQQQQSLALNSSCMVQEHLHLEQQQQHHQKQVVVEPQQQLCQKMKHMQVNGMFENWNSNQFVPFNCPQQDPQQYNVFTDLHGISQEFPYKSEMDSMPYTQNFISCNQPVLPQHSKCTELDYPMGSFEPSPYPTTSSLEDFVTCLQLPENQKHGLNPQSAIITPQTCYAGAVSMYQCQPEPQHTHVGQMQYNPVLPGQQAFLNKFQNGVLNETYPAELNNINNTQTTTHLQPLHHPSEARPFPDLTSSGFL

[4] = target: T4, Cytochrome P450 1A2 (Homo sapiens, UniProt P05177); test: Inhibition of human CYP1A2 expressed in yeast microsomal membranes using 3-cyano-7-ethoxycoumarin as substrate measured after 10 mins by fluorescence assay; assay type: ADME, cell membranes, Microsomal Membrane
T4 sequence (P05177 whole entry): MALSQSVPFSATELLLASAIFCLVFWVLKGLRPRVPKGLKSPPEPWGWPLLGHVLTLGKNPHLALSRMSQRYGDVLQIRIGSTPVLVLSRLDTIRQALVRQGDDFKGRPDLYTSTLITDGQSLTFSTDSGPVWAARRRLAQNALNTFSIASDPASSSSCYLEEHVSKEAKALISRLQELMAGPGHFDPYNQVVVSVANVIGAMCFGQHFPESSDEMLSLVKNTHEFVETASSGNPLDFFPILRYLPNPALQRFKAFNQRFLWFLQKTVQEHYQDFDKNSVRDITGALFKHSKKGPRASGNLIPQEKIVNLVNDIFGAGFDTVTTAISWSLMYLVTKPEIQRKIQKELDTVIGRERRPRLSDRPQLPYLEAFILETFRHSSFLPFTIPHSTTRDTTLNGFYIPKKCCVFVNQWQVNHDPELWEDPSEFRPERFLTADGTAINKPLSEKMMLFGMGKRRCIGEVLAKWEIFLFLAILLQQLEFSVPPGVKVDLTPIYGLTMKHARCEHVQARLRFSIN

[5] = target: T5, Cytochrome P450 2C19 (Homo sapiens, UniProt P33261); test: Inhibition of recombinant human CYP2C19 expressed in HEK293 cells using 3-cyano-7-ethoxycoumarin as substrate pretreated for 30 mins followed by substrate addition measured for 60 mins by fluorescence assay; assay type: ADME
T5 sequence (P33261 whole entry): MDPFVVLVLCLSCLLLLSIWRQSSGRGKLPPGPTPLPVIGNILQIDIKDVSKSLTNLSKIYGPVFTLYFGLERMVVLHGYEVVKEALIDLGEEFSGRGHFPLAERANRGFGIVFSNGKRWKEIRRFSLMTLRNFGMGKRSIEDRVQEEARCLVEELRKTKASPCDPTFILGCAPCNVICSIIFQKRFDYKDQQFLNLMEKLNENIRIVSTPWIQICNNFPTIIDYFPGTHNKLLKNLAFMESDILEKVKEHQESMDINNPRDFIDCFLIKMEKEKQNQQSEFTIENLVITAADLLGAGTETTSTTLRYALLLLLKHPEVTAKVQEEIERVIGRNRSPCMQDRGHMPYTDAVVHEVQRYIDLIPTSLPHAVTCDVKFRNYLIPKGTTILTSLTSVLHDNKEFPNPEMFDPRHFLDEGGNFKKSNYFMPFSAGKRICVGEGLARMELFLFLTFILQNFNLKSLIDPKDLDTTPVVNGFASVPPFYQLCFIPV

[6] = species on record: Homo sapiens; test: Selectivity ratio of IC50 for recombinant human CYP1B1 expressed in HEK293 cells to IC50 for recombinant human CYP1A1 expressed in HEK293 cells; assay type: cell-based
[7] = target: T6, Cytochrome P450 2C9 (Homo sapiens, UniProt P11712); test: Inhibition of recombinant human CYP2C9 expressed in HEK293 cells using 3-cyano-7-ethoxycoumarin as substrate pretreated for 30 mins followed by substrate addition measured for 60 mins by fluorescence assay; assay type: ADME
T6 sequence (P11712 whole entry): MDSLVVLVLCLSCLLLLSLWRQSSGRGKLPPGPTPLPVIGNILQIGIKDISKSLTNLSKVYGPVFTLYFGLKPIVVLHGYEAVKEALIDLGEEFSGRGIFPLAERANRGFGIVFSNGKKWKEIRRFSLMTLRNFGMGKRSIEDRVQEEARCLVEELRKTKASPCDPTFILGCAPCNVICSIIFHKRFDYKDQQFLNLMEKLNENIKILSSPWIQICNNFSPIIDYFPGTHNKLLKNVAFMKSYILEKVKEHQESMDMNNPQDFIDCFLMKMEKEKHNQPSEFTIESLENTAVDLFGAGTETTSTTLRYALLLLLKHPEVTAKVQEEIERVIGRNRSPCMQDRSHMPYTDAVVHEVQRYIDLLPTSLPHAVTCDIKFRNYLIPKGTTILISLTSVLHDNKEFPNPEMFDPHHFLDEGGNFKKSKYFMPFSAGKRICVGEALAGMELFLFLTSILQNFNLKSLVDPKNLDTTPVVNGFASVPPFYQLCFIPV

[8] = target: T7, Cytochrome P450 3A4 (Homo sapiens, UniProt P08684); test: Inhibition of recombinant human CYP3A4 expressed in HEK293 cells using dibenzylfluorescein as substrate pretreated for 30 mins followed by substrate addition measured for 60 mins by fluorescence assay; assay type: ADME
T7 sequence (P08684 whole entry): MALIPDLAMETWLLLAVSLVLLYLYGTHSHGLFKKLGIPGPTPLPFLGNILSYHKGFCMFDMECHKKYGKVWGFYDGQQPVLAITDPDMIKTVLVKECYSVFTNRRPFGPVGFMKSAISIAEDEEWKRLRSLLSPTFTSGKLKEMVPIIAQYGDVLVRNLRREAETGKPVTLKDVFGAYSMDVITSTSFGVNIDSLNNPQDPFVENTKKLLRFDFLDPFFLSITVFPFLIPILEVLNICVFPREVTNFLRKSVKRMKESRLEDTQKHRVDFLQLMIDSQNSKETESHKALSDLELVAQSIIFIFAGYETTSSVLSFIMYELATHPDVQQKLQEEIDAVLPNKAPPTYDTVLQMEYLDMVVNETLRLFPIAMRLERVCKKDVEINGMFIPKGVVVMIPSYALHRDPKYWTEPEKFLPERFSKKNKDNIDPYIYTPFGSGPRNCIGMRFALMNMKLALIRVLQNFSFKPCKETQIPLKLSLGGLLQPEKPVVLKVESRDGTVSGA

[9] = target: T1, Cytochrome P450 1B1; test: Inhibition of recombinant human CYP1B1 expressed in HEK293 cells using 7-ethoxyresorufin as substrate pretreated for 30 mins followed by substrate addition measured for 60 mins by fluorescence assay; assay type: cell-based
[10] = target: T8, Cytochrome P450 2D6 (Homo sapiens, UniProt P10635); test: Inhibition of human CYP2D6 expressed in yeast microsomal membranes using 7-ethoxy-methyloxy-3-cyanocoumarin as substrate measured after 10 mins by fluorescence assay; assay type: ADME, cell membranes, Microsomal Membrane
T8 sequence (P10635 whole entry): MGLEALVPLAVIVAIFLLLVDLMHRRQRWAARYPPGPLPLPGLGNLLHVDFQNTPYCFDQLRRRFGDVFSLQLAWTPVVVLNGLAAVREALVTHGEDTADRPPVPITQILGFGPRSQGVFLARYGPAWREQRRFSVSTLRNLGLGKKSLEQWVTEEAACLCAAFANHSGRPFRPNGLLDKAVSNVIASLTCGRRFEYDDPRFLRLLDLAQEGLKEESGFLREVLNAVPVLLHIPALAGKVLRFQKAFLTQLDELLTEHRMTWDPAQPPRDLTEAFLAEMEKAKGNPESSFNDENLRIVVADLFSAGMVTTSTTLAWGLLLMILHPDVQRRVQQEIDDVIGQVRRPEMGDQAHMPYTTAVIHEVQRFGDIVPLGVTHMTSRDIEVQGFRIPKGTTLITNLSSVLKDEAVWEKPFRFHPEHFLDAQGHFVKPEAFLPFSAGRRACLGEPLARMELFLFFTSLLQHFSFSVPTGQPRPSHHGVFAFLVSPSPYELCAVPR

[11] = target: T2, Cytochrome P450 1A1; test: Inhibition of human CYP1A1 expressed in yeast microsomal membranes using 7-ethoxyresorufin as substrate measured after 10 mins by fluorescence assay; assay type: cell membranes
[12] = target: T8, Cytochrome P450 2D6; test: Inhibition of recombinant human CYP2D6 expressed in HEK293 cells using 7-ethoxy-methyloxy-3-cyanocoumarin as substrate pretreated for 30 mins followed by substrate addition measured for 60 mins by fluorescence assay; assay type: ADME, cell-based
[13] = target: T2, Cytochrome P450 1A1; test: Inhibition of recombinant human CYP1A1 expressed in HEK293 cells using 7-ethoxyresorufin as substrate pretreated for 30 mins followed by substrate addition measured for 60 mins by fluorescence assay; assay type: cell-based
[14] = target: T4, Cytochrome P450 1A2; test: Inhibition of recombinant human CYP1A2 expressed in HEK293 cells using 3-cyano-7-ethoxycoumarin as substrate pretreated for 30 mins followed by substrate addition measured for 60 mins by fluorescence assay; assay type: ADME
[15] = target: T1, Cytochrome P450 1B1; test: Inhibition of human CYP1B1 expressed in yeast microsomal membranes using 7-ethoxyresorufin as substrate measured after 10 mins by fluorescence assay; assay type: cell membranes
[16] = target: T6, Cytochrome P450 2C9; test: Inhibition of human CYP2C9 expressed in yeast microsomal membranes using 3-cyano-7-ethoxycoumarin as substrate measured after 10 mins by fluorescence assay; assay type: ADME, cell membranes, Microsomal Membrane
[17] = target: T7, Cytochrome P450 3A4; test: Inhibition of human CYP3A4 expressed in yeast microsomal membranes using dibenzylfluorescein as substrate measured after 10 mins by fluorescence assay; assay type: ADME, cell membranes, Microsomal Membrane
[18] = species on record: Homo sapiens; test: Selectivity ratio of IC50 for recombinant human CYP1A2 expressed in HEK293 cells to IC50 for recombinant human CYP1A1 expressed in HEK293 cells; assay type: cell-based
[19] = target: T5, Cytochrome P450 2C19; test: Inhibition of human CYP2C19 expressed in yeast microsomal membranes using 3-cyano-7-ethoxycoumarin as substrate measured after 10 mins by fluorescence assay; assay type: ADME, cell membranes, Microsomal Membrane

Row | inhibition (INH) [3] | IC50 [4] | IC50 [5] | IC50 [7] | IC50 [8] | IC50 [9] | IC50 [10] | IC50 [11] | IC50 [12] | IC50 [13] | IC50 [14] | IC50 [15] | IC50 [16] | IC50 [17] | IC50 [19] | Compound | inhibition (INH) [1] | inhibition (INH) [2] | Ratio IC50 [6] | Ratio IC50 [18]
1 | – | – | – | – | – | – | – | – | – | – | – | – | – | – | – | O=c1cc(-c2ccccc2)oc2c1ccc1ccccc12 [ALPHA-NAPHTHOFLAVONE] | Active | Active | – | –
2 | Active | 0.78 µM | > 10 µM | > 10 µM | > 10 µM | 3.07 µM | 15 µM | 0.065 µM | > 10 µM | 0.065 µM | 0.82 µM | 2.92 µM | > 20 µM | > 20 µM | > 20 µM | CCOc1cc(/C=C/C(=O)c2ccncc2)cc(OC)c1OCC | – | – | < 10 | < 10
